Reference: BigSolDB 2.1

Nc1nc(N)c2nc(-c3ccccc3)c(N)nc2n1
solubility (mole fraction)
Conditions	283.15 K	288.15 K	293.15 K	298.15 K	303.15 K	308.15 K	313.15 K	318.15 K	323.15 K
in 1,2-dichloroethane	1.72e-06	2.31e-06	3.52e-06	5.23e-06	7.52e-06	1.07e-05	1.7e-05	2.38e-05	3.55e-05
in 2-methoxyethanol	0.00188	0.00248	0.00338	0.00454	0.00605	0.00792	0.0106	0.014	0.0181
in DMSO	–	–	0.00201	0.00281	0.00381	0.00512	0.0068	0.00901	0.0118
in acetonitrile	2.52e-06	3.43e-06	5.17e-06	7.99e-06	1.16e-05	1.61e-05	2.43e-05	3.47e-05	4.99e-05
in ethyl acetate	2.91e-06	4.53e-06	7.32e-06	9.44e-06	1.42e-05	1.95e-05	2.8e-05	3.98e-05	6.09e-05
in isobutanol	2.88e-06	4.02e-06	6.12e-06	8.74e-06	1.23e-05	1.71e-05	2.55e-05	3.79e-05	5.43e-05
in isopropanol	2.02e-06	3.53e-06	4.92e-06	7.42e-06	1.06e-05	1.47e-05	2.08e-05	2.93e-05	4.19e-05
in methanol	2.91e-05	4.31e-05	6.36e-05	8.42e-05	0.000127	0.000169	0.00024	0.00032	0.000449
in n-butanol	3.32e-06	5.33e-06	8.08e-06	1.15e-05	1.61e-05	2.11e-05	3.11e-05	4.32e-05	6.48e-05
in n-methylformamide	0.000547	0.000726	0.00103	0.00143	0.00197	0.00264	0.00353	0.00461	0.00583
in n-propanol	4.24e-06	6.13e-06	9.12e-06	1.43e-05	2.02e-05	2.82e-05	3.88e-05	5.29e-05	7.03e-05
in water	1.07e-06	1.29e-06	1.51e-06	1.79e-06	2.16e-06	2.64e-06	3.13e-06	3.76e-06	4.61e-06
